Measurements as given in a compilation of properties of binary mixtures (doi:10.1016/j.molliq.2017.11.153).

Test: xn = mol fraction of the nth substance listed
Conditions: 101 kPa

CCCC[n+]1ccccc1.N#C[N-]C#N + CC1COC(=O)O1
Conditions | electrical conductivity [S/m] | viscosity [mPa·s]
288.15 K, x1 = 0.197 | 0.742 | 6.99
288.15 K, x1 = 0.3005 | 1.42 | 9.49
288.15 K, x1 = 0.4003 | 1.56 | 13.97
288.15 K, x1 = 0.4997 | 1.5 | 17.55
288.15 K, x1 = 0.6002 | 1.73 | 22.95
288.15 K, x1 = 0.7011 | 1.64 | 29.62
288.15 K, x1 = 0.7885 | 1.86 | 36.03
288.15 K, x1 = 0.9008 | 1.76 | 44.07
288.15 K, x1 = 1 | 1.05 | 51.49
293.15 K, x1 = 0.1003 | 0.749 | 4.23
293.15 K, x1 = 0.197 | 0.986 | 5.99
293.15 K, x1 = 0.3005 | 1.54 | 8.102
293.15 K, x1 = 0.4003 | 1.7 | 11.73
293.15 K, x1 = 0.6002 | 1.89 | 18.85
293.15 K, x1 = 0.7011 | 1.8 | 24.05
293.15 K, x1 = 0.7885 | 2.06 | 29.56
293.15 K, x1 = 0.9008 | 1.96 | 36.12
293.15 K, x1 = 1 | 1.24 | 41.05
298.15 K, x1 = 0.1003 | 0.979 | 3.756
298.15 K, x1 = 0.197 | 1.25 | 5.229
298.15 K, x1 = 0.4003 | 1.92 | 10
298.15 K, x1 = 0.4997 | 1.92 | 12.17
298.15 K, x1 = 0.6002 | 2.1 | 15.72
298.15 K, x1 = 0.9008 | 2.19 | 29.65
298.15 K, x1 = 1 | 1.48 | 33.27
303.15 K, x1 = 0.1003 | 1.18 | 3.361
303.15 K, x1 = 0.197 | 1.49 | 4.616
303.15 K, x1 = 0.4003 | 2.13 | 8.585
303.15 K, x1 = 0.4997 | 2.16 | 10.33
303.15 K, x1 = 0.7011 | 2.3 | 16.61
303.15 K, x1 = 0.7885 | 2.54 | 20.61
303.15 K, x1 = 0.9008 | 2.44 | 24.44
303.15 K, x1 = 1 | 1.75 | 27.62
308.15 K, x1 = 0.197 | 1.71 | 4.109
308.15 K, x1 = 0.4003 | 2.36 | 7.468
308.15 K, x1 = 0.4997 | 2.37 | 8.918
308.15 K, x1 = 0.6002 | 2.6 | 11.36
308.15 K, x1 = 0.7885 | 2.82 | 17.47
308.15 K, x1 = 0.9008 | 2.72 | 20.45
308.15 K, x1 = 1 | 2.01 | 22.9
313.15 K, x1 = 0.197 | 1.97 | 3.689
313.15 K, x1 = 0.4003 | 2.62 | 6.563
313.15 K, x1 = 0.4997 | 2.63 | 7.769
313.15 K, x1 = 0.6002 | 2.85 | 9.83
313.15 K, x1 = 0.7011 | 2.8 | 12.08
313.15 K, x1 = 0.7885 | 3.1 | 14.86
313.15 K, x1 = 0.9008 | 3 | 17.22
313.15 K, x1 = 1 | 2.26 | 19.3
318.15 K, x1 = 0.197 | 2.19 | 3.335
318.15 K, x1 = 0.3005 | 2.75 | 4.265
318.15 K, x1 = 0.4003 | 2.89 | 5.812
318.15 K, x1 = 0.4997 | 2.92 | 6.839
318.15 K, x1 = 0.6002 | 3.13 | 8.579
318.15 K, x1 = 0.7885 | 3.39 | 12.44
318.15 K, x1 = 0.9008 | 3.28 | 14.84
318.15 K, x1 = 1 | 2.54 | 16.73
323.15 K, x1 = 0.1003 | 2 | 2.291
323.15 K, x1 = 0.4003 | 3.17 | 5.183
323.15 K, x1 = 0.4997 | 3.27 | 6.066
323.15 K, x1 = 0.6002 | 3.42 | 7.559
323.15 K, x1 = 0.9008 | 3.6 | 12.65
323.15 K, x1 = 1 | 2.88 | 14.44
328.15 K, x1 = 0.1003 | 2.23 | 2.121
328.15 K, x1 = 0.197 | 2.71 | 2.794
328.15 K, x1 = 0.3005 | 3.33 | 3.481
328.15 K, x1 = 0.4003 | 3.48 | 4.656
328.15 K, x1 = 0.4997 | 3.61 | 5.42
328.15 K, x1 = 0.7011 | 3.77 | 8.083
328.15 K, x1 = 0.7885 | 4.05 | 9.34
328.15 K, x1 = 0.9008 | 3.93 | 11.05
333.15 K, x1 = 0.1003 | 2.43 | 1.968
333.15 K, x1 = 0.4003 | 3.83 | 4.209
333.15 K, x1 = 0.4997 | 3.94 | 4.876
333.15 K, x1 = 0.6002 | 4.07 | 6.001
333.15 K, x1 = 0.7885 | 4.4 | 8.312
333.15 K, x1 = 0.9008 | 4.29 | 9.53
338.15 K, x1 = 0.1003 | 2.64 | 1.834
338.15 K, x1 = 0.3005 | 4.02 | 2.906
338.15 K, x1 = 0.4003 | 4.17 | 3.827
338.15 K, x1 = 0.4997 | 4.3 | 4.429
338.15 K, x1 = 0.6002 | 4.43 | 5.401
338.15 K, x1 = 0.7011 | 4.53 | 6.433
338.15 K, x1 = 0.7885 | 4.78 | 7.324
338.15 K, x1 = 0.9008 | 4.68 | 8.488
338.15 K, x1 = 1 | 3.83 | 9.79
343.15 K, x1 = 0.1003 | 2.85 | 1.716
343.15 K, x1 = 0.197 | 3.42 | 2.232
343.15 K, x1 = 0.3005 | 4.37 | 2.675
343.15 K, x1 = 0.4003 | 4.53 | 3.498
343.15 K, x1 = 0.4997 | 4.68 | 4.039
343.15 K, x1 = 0.6002 | 4.83 | 4.891
343.15 K, x1 = 0.7885 | 5.21 | 6.724
343.15 K, x1 = 1 | 4.21 | 8.771
348.15 K, x1 = 0.1003 | 3.07 | 1.612
348.15 K, x1 = 0.197 | 3.69 | 2.089
348.15 K, x1 = 0.4003 | 4.92 | 3.213
348.15 K, x1 = 0.4997 | 5.12 | 3.704
348.15 K, x1 = 0.6002 | 5.3 | 4.454
348.15 K, x1 = 0.7885 | 5.72 | 6.247
348.15 K, x1 = 0.9008 | 5.61 | 6.724
348.15 K, x1 = 1 | 4.53 | 7.884
353.15 K, x1 = 0.1003 | 3.26 | 1.519
353.15 K, x1 = 0.197 | 3.93 | 1.964
353.15 K, x1 = 0.3005 | 5.11 | 2.296
353.15 K, x1 = 0.4997 | 5.58 | 3.414
353.15 K, x1 = 0.6002 | 5.79 | 4.076
353.15 K, x1 = 0.7011 | 5.98 | 4.787
353.15 K, x1 = 0.7885 | 6.29 | 5.647
353.15 K, x1 = 0.9008 | 6.14 | 6.159
353.15 K, x1 = 1 | 4.93 | 7.129

CC1COC(=O)O1 (configuration not stated) + CCCC[n+]1ccccc1.N#C[N-]C#N
x2 = 0
Conditions | viscosity [mPa·s]
288.15 K | 3.064
293.15 K | 2.738
298.15 K | 2.469
303.15 K | 2.24
308.15 K | 2.042
313.15 K | 1.873
323.15 K | 1.595
328.15 K | 1.464
338.15 K | 1.277
343.15 K | 1.195
348.15 K | 1.122
353.15 K | 1.056
